Source: publication PMC9304322, “Targeting retinoic acid receptor alpha-corepressor interaction activates chaperone-mediated autophagy and protects against retinal degeneration” (Nature Communications, 2022)
“And” between values parts separate entries of the source, which are not always exact repeats. Equal entries are not always repeated. Where two headings read alike, the source gives them in different places.

Legend:
[1] = In vitro solubility by nephelometry; type: physicochemical; conditions: in words
Method: In vitro solubility in the following conditions A) HBSS/HEPES 10 mM/BSA 0.1% pH 6 B) HBSS/HEPES 10 mM/BSA 0.1% pH 7.4 C) TRIS/BSA 0.1% PBS (pH 7.4 and at indicated doses were measured by Nephelometry using the NEPHELOstar Galaxy apparatus (BMG Lab Technologies). In vitro stability in human, mouse and rat liver microsomes and permeability using a bidirectional permeability assay with CaCo-2 cells (pH 6.5/7.4) assays were performed with standard methodology and analyzed by LC-MS/MS. at SIMM-SERVIER joint Biopharmacy Laboratory. ADME properties for CA39 and CA77 were predicted by QikProp (Schrödinger, LLC, Releases 2016-2020) software.

[2] = Pharmacokinetic analysis, plasma and brain;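 as to Fig. 3a level, MEAN: plasma concentration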;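 as to Fig. 3a level, single animals 1-3: plasma concentration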;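 as to Fig. 3b level, MEAN: brain concentration in ng/g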;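 as to Fig. 3b level, single animals 1-3: brain concentration in ng/g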; type: in vivo, ICR (CD-1) male mice; set-up: Fig. 3a level, single animals 1-3 / Fig. 3a level, MEAN / Fig. 3b level, single animals 1-3 / Fig. 3b level, MEAN: unit not given here; conditions: for Kp at 0.083 h / Kp at 0.25 h / Kp at 0.5 h / Kp at 1 h / Kp at 2 h / Kp at 4 h / Kp at 8 h / Kp at 24 h / half-life: male, ICR (CD-1), mouse; for half-life: mice
Method: ICR (CD-1) male mice were fasted at least three hours and water was available ad libitum before the study. Animals were housed in a controlled environment, target conditions: temperature 18 to 29 °C, relative humidity 30 to 70%. Temperature and relative humidity was monitored daily. An electronic time-controlled lighting system was used to provide a 12 h light/12 h dark cycle. 3 mice for each indicated time point were administered 30 mg/Kg CA39 or CA77 by oral gavage or 1 mg/Kg CA39 or CA77 by intravenous injection using 30% PEG-400, 65% D5W (5% dextrose in water), 5% Tween-80 vehicle. Mice were sacrificed, and brain samples were harvested at […], 0.25 h, 0.5 h, 1 h, 2 h, 4 h, 8 h, 24 h, and analyzed for CA39 or CA77 levels using LC-MS/MS. Pharmacokinetics parameters were calculated using Phoenix WinNonlin 6.3. Experiments performed at SIMM-SERVIER joint Biopharmacy Laboratory.

SMILES: Clc1ccc2c(c1)OCC(c1ccc(-c3ccccc3)cc1)=N2 [CA39]
- solubility [1]: reasonable
- Fig. 3a level, MEAN ([2]; IV, Time 0.083 h): 61.1254
- Fig. 3b level, MEAN ([2]; IV, Time 0.083 h): 61.1254
- Fig. 3a level, MEAN ([2]; IV, Time 0.25 h): 57.4762
- Fig. 3a level, single animals 1-3 ([2]; IV, Time 0.25 h): 71.3655 and 52.5276 and 48.5355
- Fig. 3b level, MEAN ([2]; IV, Time 0.25 h): 421.667
- Fig. 3b level, single animals 1-3 ([2]; IV, Time 0.25 h): 231 and 301 and 733
- Fig. 3a level, MEAN ([2]; IV, Time 0.5 h): 96.4163
- Fig. 3a level, single animals 1-3 ([2]; IV, Time 0.5 h): 97.156 and 95.5316 and 96.5614
- Fig. 3b level, single animals 1-3 ([2]; IV, Time 0.5 h): 253.229 and 219.924 and 96.4385
- Fig. 3a level, single animals 1-3 ([2]; IV, Time 1 h): 65.9772 and 7.434 and 72.9585
- Fig. 3b level, single animals 1-3 ([2]; IV, Time 1 h): 838.595 and 293.717 and 133.533
- Fig. 3a level, MEAN ([2]; IV, Time 2 h): 127.026
- Fig. 3a level, single animals 1-3 ([2]; IV, Time 2 h): 125.63 and 157.282 and 98.1671
- Fig. 3b level, MEAN ([2]; IV, Time 2 h): 775.11
- Fig. 3b level, single animals 1-3 ([2]; IV, Time 2 h): 875.96 and 812.85 and 636.52
- Fig. 3a level, MEAN ([2]; IV, Time 4 h): 46.5654
- Fig. 3a level, single animals 1-3 ([2]; IV, Time 4 h): 39.4404 and 55.2956 and 44.9603
- Fig. 3b level, MEAN ([2]; IV, Time 4 h): 580.088
- Fig. 3b level, single animals 1-3 ([2]; IV, Time 4 h): 625.12 and 582.925 and 532.22
- Fig. 3a level, single animals 1-3 ([2]; IV, Time 8 h): 53.1345 and 36.7923 and 35.4264
- Fig. 3b level, single animals 1-3 ([2]; IV, Time 8 h): 688.34 and 475.587 and 740.905
- Fig. 3a level, MEAN ([2]; IV, Time 24 h): 8.834
- Fig. 3a level, single animals 1-3 ([2]; IV, Time 24 h): 7.122 and 12.7302 and 6.65
- Fig. 3b level, single animals 1-3 ([2]; IV, Time 24 h): 137.514 and 156.133 and 197.201
- B/P, Brian/Plasma ([2]; P.O., Time 0.25 h, individual animals): 3.427 and 5.487
- B/P, Brian/Plasma ([2]; P.O., Time 0.5 h, individual animals): 1.74 and 1.607
- B/P, Brian/Plasma ([2]; P.O., Time 1 h, individual animals): 6.477 and 4.807
- B/P, Brian/Plasma ([2]; P.O., Time 2 h, individual animals): 7.798 and 6.806
- B/P, Brian/Plasma ([2]; P.O., Time 4 h, individual animals): 5.185 and 9.171 and 14.1075
- B/P, Brian/Plasma ([2]; P.O., Time 8 h, individual animals): 9.709 and 14.5255
- B/P, Brian/Plasma ([2]; P.O., Time 24 h, individual animals): 21.0683
- Fig. 3b level, MEAN ([2]; PO, Time 0.25 h): 110.007
- Fig. 3b level, single animals 1-3 ([2]; PO, Time 0.25 h): 143.332 and 91.145 and 95.5425
- Fig. 3b level, MEAN ([2]; PO, Time 0.5 h): 246.705
- Fig. 3b level, single animals 1-3 ([2]; PO, Time 0.5 h): 250.188 and 244.993 and 244.933
- Fig. 3b level, single animals 1-3 ([2]; PO, Time 1 h): 302.13 and 49.5585 and 266.305
- Fig. 3a level, MEAN ([2]; PO, Time 2 h): 103.157
- Fig. 3a level, single animals 1-3 ([2]; PO, Time 2 h): 111.712 and 104.237 and 93.5216
- Fig. 3b level, MEAN ([2]; PO, Time 2 h): 582.568
- Fig. 3b level, single animals 1-3 ([2]; PO, Time 2 h): 673.81 and 487.02 and 586.875
- Fig. 3a level, MEAN ([2]; PO, Time 4 h): 73.9526
- Fig. 3a level, single animals 1-3 ([2]; PO, Time 4 h): 120.568 and 63.5639 and 37.7259
- Fig. 3b level, MEAN ([2]; PO, Time 4 h): 609.462
- Fig. 3b level, single animals 1-3 ([2]; PO, Time 4 h): 583.44 and 598.755 and 646.19
- Fig. 3a level, single animals 1-3 ([2]; PO, Time 8 h): 41.4288 and 48.9846 and 51.0072
- Fig. 3b level, single animals 1-3 ([2]; PO, Time 8 h): 620.035 and 487.115 and 529.995
- Fig. 3a level, MEAN ([2]; PO, Time 24 h): 11.2914
- Fig. 3a level, single animals 1-3 ([2]; PO, Time 24 h): 11.8674 and 7.411 and 14.5959
- Fig. 3b level, MEAN ([2]; PO, Time 24 h): 118.958
- Fig. 3b level, single animals 1-3 ([2]; PO, Time 24 h): 104.574 and 178.19 and 74.11
- B/P, Brian/Plasma ([2]; i.v., Time 0.083 h, individual animals): 1.236 and 1.666
- B/P, Brian/Plasma ([2]; i.v., Time 0.25 h, individual animals): 1.735 and 1.969
- B/P, Brian/Plasma ([2]; i.v., Time 0.5 h, individual animals): 2.565 and 2.537
- B/P, Brian/Plasma ([2]; i.v., Time 1 h, individual animals): 6.667 and 3.6501
- B/P, Brian/Plasma ([2]; i.v., Time 2 h, individual animals): 3.096 and 5.978
- B/P, Brian/Plasma ([2]; i.v., Time 4 h, individual animals): 10.8283 and 14.3725
- B/P, Brian/Plasma ([2]; i.v., Time 8 h, individual animals): 13.2396 and 14.9605
- B/P, Brian/Plasma ([2]; i.v., Time 24 h, individual animals): 13.9974
- Kp at 0.083 h ([2]; brain, iv, 1 mg/Kg, i.v., Time 0.083 h, individual animals, read-out: B/P, Brian/Plasma): 1.37
- Kp at 0.083 h ([2]; brain, iv, 1 mg/Kg, i.v., Time 0.083 h, mean, read-out: B/P, Brian/Plasma, Mean): 1.42
- Kp at 0.25 h ([2]; brain, iv, 1 mg/Kg, i.v., Time 0.25 h, individual animals, read-out: B/P, Brian/Plasma): 2.01
- Kp at 0.25 h ([2]; brain, iv, 1 mg/Kg, i.v., Time 0.25 h, mean, read-out: B/P, Brian/Plasma, Mean): 1.9
- Kp at 0.5 h ([2]; brain, iv, 1 mg/Kg, i.v., Time 0.5 h, individual animals, read-out: B/P, Brian/Plasma): 2.58
- Kp at 0.5 h ([2]; brain, iv, 1 mg/Kg, i.v., Time 0.5 h, mean, read-out: B/P, Brian/Plasma, Mean): 2.56
- Kp at 1 h ([2]; brain, iv, 1 mg/Kg, i.v., Time 1 h, individual animals, read-out: B/P, Brian/Plasma): 4.58
- Kp at 1 h ([2]; brain, iv, 1 mg/Kg, i.v., Time 1 h, mean, read-out: B/P, Brian/Plasma, Mean): 4.11
- Kp at 2 h ([2]; brain, iv, 1 mg/Kg, i.v., Time 2 h, individual animals, read-out: B/P, Brian/Plasma): 5.36
- Kp at 2 h ([2]; brain, iv, 1 mg/Kg, i.v., Time 2 h, mean, read-out: B/P, Brian/Plasma, Mean): 4.81
- Kp at 4 h ([2]; brain, iv, 1 mg/Kg, i.v., Time 4 h, individual animals, read-out: B/P, Brian/Plasma): 14.8
- Kp at 4 h ([2]; brain, iv, 1 mg/Kg, i.v., Time 4 h, mean, read-out: B/P, Brian/Plasma, Mean): 13.3
- Kp at 8 h ([2]; brain, iv, 1 mg/Kg, i.v., Time 8 h, individual animals, read-out: B/P, Brian/Plasma): 11.7
- Kp at 8 h ([2]; brain, iv, 1 mg/Kg, i.v., Time 8 h, mean, read-out: B/P, Brian/Plasma, Mean): 13.3
- Kp at 24 h ([2]; brain, iv, 1 mg/Kg, i.v., Time 24 h, individual animals, read-out: B/P, Brian/Plasma): 14.7
- Kp at 24 h ([2]; brain, iv, 1 mg/Kg, i.v., Time 24 h, mean, read-out: B/P, Brian/Plasma, Mean): 14.2
- Kp at 0.25 h ([2]; brain, po, 30 mg/Kg, P.O., Time 0.25 h, individual animals, read-out: B/P, Brian/Plasma): 4.01
- Kp at 0.25 h ([2]; brain, po, 30 mg/Kg, P.O., Time 0.25 h, mean, read-out: B/P, Brian/Plasma, Mean): 4.31
- Kp at 0.5 h ([2]; brain, po, 30 mg/Kg, P.O., Time 0.5 h, individual animals, read-out: B/P, Brian/Plasma): 1.82
- Kp at 0.5 h ([2]; brain, po, 30 mg/Kg, P.O., Time 0.5 h, mean, read-out: B/P, Brian/Plasma, Mean): 1.72
- Kp at 1 h ([2]; brain, po, 30 mg/Kg, P.O., Time 1 h, individual animals, read-out: B/P, Brian/Plasma): 5.37
- Kp at 1 h ([2]; brain, po, 30 mg/Kg, P.O., Time 1 h, mean, read-out: B/P, Brian/Plasma, Mean): 5.55
- Kp at 2 h ([2]; brain, po, 30 mg/Kg, P.O., Time 2 h, individual animals, read-out: B/P, Brian/Plasma): 7.84
- Kp at 2 h ([2]; brain, po, 30 mg/Kg, P.O., Time 2 h, mean, read-out: B/P, Brian/Plasma, Mean): 7.48
- Kp at 4 h ([2]; brain, po, 30 mg/Kg, P.O., Time 4 h, mean, read-out: B/P, Brian/Plasma, Mean): 9.49
- Kp at 8 h ([2]; brain, po, 30 mg/Kg, P.O., Time 8 h, individual animals, read-out: B/P, Brian/Plasma): 16.6
- Kp at 8 h ([2]; brain, po, 30 mg/Kg, P.O., Time 8 h, mean, read-out: B/P, Brian/Plasma, Mean): 13.6
- Kp at 24 h ([2]; brain, po, 30 mg/Kg, P.O., Time 24 h, individual animals, read-out: B/P, Brian/Plasma): 11.6
- Kp at 24 h ([2]; brain, po, 30 mg/Kg, P.O., Time 24 h, mean, read-out: B/P, Brian/Plasma, Mean): 17.9
- half-life ([2]; brain, IV 1 mg/kg, read-out: Half-life in brain (converted)): 8 h
- half-life ([2]; brain, PO 30 mg/kg, read-out: Half-life in brain (converted)): 10 h
- half-life ([2]; plasma, IV 1 mg/kg, read-out: Half-life in plasma (converted)): 8.2 h
- half-life ([2]; plasma, PO 30 mg/kg, read-out: Half-life in plasma (converted)): 7.5 h
